The target of assay [1] is T1, AAK1 (Homo sapiens, UniProt Q2M2I8).
T1 construct: to maximize the representation of endogenous proteins; endogenous in cells
As to the kind of experiment: Kinobeads two-dose competition binding: AAK1.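 As to all read-outs here: kinobeads competition pulldown from cell lysate, compound preincubated 45 min at 4 °C, bead-bound protein measured by label-free mass spectrometry against DMSO vehicle control.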 The settings on record: for CATDS: sheet CATDS matrix 2, Gene Name AAK1; for potency estimated from few doses: read-out: Kinobeads Drugmatrix - all: apparent Kd, AAK1.

Assay [2] deals with ABL1 (Homo sapiens, UniProt P00519). The assay can be described thus: Kinobeads two-dose competition binding: ABL1. As to conditions: sheet CATDS matrix 2; Gene Name ABL1.
Chain of ABL1 (P00519 28-1130 limits assumed): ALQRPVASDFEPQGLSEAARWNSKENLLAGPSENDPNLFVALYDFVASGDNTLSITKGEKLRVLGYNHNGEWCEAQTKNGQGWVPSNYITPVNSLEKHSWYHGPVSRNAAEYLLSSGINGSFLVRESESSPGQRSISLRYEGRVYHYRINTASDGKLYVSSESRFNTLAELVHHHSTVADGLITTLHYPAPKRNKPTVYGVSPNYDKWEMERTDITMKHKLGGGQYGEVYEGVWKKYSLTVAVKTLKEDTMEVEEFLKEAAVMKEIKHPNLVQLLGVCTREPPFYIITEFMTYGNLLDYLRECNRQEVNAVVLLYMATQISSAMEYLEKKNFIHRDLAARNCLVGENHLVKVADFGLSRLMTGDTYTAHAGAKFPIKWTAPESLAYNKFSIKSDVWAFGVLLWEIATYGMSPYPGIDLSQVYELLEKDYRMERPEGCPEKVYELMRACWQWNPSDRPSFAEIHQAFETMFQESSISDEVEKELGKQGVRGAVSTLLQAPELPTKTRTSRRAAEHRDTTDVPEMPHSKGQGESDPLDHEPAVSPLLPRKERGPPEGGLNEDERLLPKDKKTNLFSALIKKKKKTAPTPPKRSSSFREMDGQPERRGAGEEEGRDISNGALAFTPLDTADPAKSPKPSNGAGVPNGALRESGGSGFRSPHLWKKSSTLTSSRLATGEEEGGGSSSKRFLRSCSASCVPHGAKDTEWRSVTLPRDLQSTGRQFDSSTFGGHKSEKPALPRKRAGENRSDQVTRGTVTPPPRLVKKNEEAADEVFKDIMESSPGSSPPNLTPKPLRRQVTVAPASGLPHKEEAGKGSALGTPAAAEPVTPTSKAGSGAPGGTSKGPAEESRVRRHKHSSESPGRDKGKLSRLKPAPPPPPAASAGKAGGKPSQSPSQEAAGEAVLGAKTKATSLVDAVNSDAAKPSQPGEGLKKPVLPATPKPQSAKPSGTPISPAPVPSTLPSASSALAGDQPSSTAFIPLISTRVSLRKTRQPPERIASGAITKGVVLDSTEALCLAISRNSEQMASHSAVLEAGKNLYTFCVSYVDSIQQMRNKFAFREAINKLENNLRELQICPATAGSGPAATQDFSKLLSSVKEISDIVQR
The target in assay [3] is T2, ABL2 (Homo sapiens, UniProt P42684).
T2 construct: endogenous in cells
T2 sequence (P42684 whole entry): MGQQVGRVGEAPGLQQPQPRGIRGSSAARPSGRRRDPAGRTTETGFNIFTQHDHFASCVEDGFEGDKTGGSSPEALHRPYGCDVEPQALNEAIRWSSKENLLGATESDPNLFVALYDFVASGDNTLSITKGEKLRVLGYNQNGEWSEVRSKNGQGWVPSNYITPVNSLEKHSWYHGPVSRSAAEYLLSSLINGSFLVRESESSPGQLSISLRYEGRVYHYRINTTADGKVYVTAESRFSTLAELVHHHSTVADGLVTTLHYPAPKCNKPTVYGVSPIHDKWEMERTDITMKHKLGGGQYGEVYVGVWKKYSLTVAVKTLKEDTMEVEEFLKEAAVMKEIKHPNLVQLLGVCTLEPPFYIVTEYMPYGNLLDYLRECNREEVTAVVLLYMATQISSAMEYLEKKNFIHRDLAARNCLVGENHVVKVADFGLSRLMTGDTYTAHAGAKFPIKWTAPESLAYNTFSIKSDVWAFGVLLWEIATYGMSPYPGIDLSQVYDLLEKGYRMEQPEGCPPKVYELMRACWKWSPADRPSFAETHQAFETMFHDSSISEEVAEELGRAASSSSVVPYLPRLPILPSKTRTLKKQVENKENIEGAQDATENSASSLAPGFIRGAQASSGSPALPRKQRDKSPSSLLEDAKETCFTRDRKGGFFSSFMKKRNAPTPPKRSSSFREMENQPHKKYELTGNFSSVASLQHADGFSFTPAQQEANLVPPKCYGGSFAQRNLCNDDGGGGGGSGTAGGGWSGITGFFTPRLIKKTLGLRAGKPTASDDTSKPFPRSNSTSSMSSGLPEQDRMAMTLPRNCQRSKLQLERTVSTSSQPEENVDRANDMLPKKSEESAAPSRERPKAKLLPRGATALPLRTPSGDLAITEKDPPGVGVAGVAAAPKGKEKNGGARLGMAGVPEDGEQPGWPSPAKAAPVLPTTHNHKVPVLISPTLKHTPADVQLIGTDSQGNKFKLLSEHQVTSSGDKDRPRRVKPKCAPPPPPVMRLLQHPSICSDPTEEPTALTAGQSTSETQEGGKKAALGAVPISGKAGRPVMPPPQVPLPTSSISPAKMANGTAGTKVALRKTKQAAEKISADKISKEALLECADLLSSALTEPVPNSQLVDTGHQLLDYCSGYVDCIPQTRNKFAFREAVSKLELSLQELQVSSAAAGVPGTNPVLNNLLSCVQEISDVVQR
As to the kind of experiment: Kinobeads two-dose competition binding: ABL2. As to conditions: sheet CATDS matrix 2; Gene Name ABL2.

In assay [4] the target is T3, ACOX1 (Homo sapiens, UniProt Q15067).
T3 construct: endogenous in cells
T3 sequence (Q15067 1-660): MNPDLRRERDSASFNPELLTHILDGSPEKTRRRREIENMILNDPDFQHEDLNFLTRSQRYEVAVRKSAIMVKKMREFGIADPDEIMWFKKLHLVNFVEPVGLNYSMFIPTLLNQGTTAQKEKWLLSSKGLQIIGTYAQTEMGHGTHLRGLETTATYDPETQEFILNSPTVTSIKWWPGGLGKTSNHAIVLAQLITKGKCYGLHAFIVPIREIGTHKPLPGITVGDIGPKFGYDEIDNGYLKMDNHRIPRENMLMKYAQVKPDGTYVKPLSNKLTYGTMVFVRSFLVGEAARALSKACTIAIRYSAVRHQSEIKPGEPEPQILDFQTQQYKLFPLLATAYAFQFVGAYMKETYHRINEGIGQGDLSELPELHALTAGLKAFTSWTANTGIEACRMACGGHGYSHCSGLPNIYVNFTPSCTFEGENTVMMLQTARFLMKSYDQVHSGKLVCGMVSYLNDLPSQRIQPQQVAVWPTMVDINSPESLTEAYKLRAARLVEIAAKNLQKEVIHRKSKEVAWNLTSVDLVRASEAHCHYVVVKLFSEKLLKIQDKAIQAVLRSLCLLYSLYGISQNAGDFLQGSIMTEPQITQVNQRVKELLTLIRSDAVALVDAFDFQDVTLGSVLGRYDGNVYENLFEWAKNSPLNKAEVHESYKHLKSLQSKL
As to the kind of experiment: Kinobeads two-dose competition binding: ACOX1.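 Also: competition of compounds with immobilized broad-spectrum kinase inhibitor beads in cell lysate at 100 and 1,000 nM, 45 min at 4 °C, bead-bound protein quantified by label-free MS versus DMSO.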 The settings on record: sheet CATDS matrix 2; Gene Name ACOX1.

Assay [5] concerns the target T4, ACAD11 (Homo sapiens, UniProt Q709F0).
T4 construct: endogenous in cells
T4 sequence (Q709F0 1-780): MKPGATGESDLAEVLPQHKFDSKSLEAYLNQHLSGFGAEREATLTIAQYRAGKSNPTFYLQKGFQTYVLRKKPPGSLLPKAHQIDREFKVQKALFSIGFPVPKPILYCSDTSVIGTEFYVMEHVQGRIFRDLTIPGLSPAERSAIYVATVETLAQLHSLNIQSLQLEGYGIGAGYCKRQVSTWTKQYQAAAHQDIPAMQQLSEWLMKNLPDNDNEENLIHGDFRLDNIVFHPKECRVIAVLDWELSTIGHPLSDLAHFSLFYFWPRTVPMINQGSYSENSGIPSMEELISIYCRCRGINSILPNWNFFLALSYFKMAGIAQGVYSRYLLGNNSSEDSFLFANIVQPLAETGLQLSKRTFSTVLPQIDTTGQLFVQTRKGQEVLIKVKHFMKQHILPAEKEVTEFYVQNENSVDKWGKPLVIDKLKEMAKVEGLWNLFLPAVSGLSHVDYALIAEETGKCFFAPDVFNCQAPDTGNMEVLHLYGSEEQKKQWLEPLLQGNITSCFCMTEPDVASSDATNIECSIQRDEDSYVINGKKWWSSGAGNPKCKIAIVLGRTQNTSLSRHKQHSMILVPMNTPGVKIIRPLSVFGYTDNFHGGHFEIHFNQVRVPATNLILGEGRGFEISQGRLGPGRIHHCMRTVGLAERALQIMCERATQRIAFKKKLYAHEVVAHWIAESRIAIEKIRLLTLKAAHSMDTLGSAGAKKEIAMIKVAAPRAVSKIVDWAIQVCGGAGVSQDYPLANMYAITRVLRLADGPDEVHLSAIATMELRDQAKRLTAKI
As to the kind of experiment: Kinobeads two-dose competition binding: ACAD11. As to conditions: sheet CATDS matrix 2; Gene Name ACAD11.

Where [6] appears, read: sheet "Kinobeads Drugmatrix - all", unit inferred, same values below 1000 recur in sheet "nanomolar".

The text below walks through data of publication PMC11062922 (Nature Chemical Biology, 2023).

Structures are written as SMILES. Like-named read-outs stand apart in the source and are kept apart here. Some results are limits rather than exact numbers.

T1 sequence (Q2M2I8 whole entry): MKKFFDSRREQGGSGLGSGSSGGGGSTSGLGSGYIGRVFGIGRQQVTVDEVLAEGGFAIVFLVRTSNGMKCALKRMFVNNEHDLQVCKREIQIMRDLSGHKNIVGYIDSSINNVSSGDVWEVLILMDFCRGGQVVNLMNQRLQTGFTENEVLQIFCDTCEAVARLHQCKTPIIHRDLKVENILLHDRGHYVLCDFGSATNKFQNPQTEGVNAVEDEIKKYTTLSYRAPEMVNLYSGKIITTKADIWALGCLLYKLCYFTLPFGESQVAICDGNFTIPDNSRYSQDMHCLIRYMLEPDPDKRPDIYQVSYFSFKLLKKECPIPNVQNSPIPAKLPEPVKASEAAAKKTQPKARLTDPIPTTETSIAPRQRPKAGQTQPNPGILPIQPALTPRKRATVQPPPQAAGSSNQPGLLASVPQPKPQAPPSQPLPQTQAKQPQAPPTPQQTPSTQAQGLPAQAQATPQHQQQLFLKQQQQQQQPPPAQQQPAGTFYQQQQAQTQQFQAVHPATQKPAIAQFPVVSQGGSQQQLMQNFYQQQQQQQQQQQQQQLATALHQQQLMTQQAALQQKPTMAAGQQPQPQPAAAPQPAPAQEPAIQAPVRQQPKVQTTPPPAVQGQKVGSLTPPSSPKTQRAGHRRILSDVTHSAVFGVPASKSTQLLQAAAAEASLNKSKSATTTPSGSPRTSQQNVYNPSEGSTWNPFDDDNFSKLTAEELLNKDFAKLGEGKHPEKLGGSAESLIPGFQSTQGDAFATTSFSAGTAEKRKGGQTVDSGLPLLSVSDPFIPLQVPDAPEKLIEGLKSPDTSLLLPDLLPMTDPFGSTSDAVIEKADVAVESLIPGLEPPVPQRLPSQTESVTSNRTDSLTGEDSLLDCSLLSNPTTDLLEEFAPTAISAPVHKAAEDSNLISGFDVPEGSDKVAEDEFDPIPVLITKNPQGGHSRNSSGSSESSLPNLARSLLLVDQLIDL

Regarding `O=C(Nc1cccc(-c2nn3ncccc3c2-c2ccnc(Nc3ccccc3)n2)c1)c1c(F)cccc1F` [GSK198271A], the CATDS in assay [1], in assay [2], in assay [3], in assay [4] and in assay [5] was 0 throughout.

Turning to `N#Cc1cccc(C(=O)NC2CCN(c3ccnc(Nc4ccc(F)cc4)n3)C2)c1` (centres unmarked) [GSK1379708A], the CATDS in assay [1], in assay [2], in assay [3], in assay [4] and in assay [5] was 0 in each case.

Regarding `CNc1cc(-c2ccc3c(N)n[nH]c3c2)nc(N)n1` [GSK2224810A], the CATDS in assay [1] is 0.04187; in assay [2] it was 0; in assay [3] it was 0; in assay [4], 0; in assay [5], 0.

Turning to `Cc1cn(-c2cc(NC(=O)c3ccc4c(c3)CN(c3cncnc3)C[C@@H]4C)cc(C(F)(F)F)c2)cn1` [Compound D2202-1], the CATDS in assay [1], in assay [2], in assay [3], in assay [4] and in assay [5] was 0 throughout.

With `COc1cc(C)c(NC(=O)CN(C)C)cc1Nc1nc(Nc2cccc(F)c2C(N)=O)c2cc[nH]c2n1` [GSK2213727A], the CATDS in assay [1], in assay [2], in assay [3], in assay [4] and in assay [5] was 0 each time.

For `COc1cc(Nc2nccc(N3CCC(NS(=O)(=O)c4ccc(NC(C)=O)cc4)CC3)n2)cc(OC)c1OC` [GSK1379825A], the CATDS in assay [1], in assay [2], in assay [3], in assay [4] and in assay [5] was 0 in each case.

Regarding `C[C@H]1CC[C@@H](C(=O)Nc2ccccc2)CN1c1cc(-c2ccc3c(N)n[nH]c3c2)nc(N)n1` [GSK2283293_KCGS], the CATDS in assay [1], in assay [2], in assay [3], in assay [4] and in assay [5] was 0 in each case.

With `Cc1ccc(NC(=O)Nc2ccccc2)cc1-c1ccc(C(=O)Nc2ccncc2)cc1` [GSK1398471A], the CATDS in assay [1], in assay [2], in assay [3], in assay [4] and in assay [5] was 0 in each case.

For the molecule `Cc1ccc(NC(=O)Nc2ccccc2F)cc1-c1ccc(C(=O)Nc2ccncc2)cc1` [GSK1398477_KCGS], the CATDS is on record as 0.01281 in assay [1]; 0.0136 in assay [2]; 0.02269 in assay [3]; 0 in assay [4]; 0.01477 in assay [5].

As for `Cc1cccc(Nc2nc(N[C@H]3CCNC3)ncc2C(N)=O)c1` [GSK2197149A], in assay [1], the potency estimated from few doses is 64.6 nM. Besides, the CATDS in assay [1] came to 0.1293; in assay [2] it was 0; in assay [3], 0; in assay [4], 0; in assay [5], 0.

For `CSc1nn2c(=O)cc(N3CCOCC3)nc2n1Cc1cccc(C(F)(F)F)c1C` [GSK2363608B], the CATDS in assay [1], in assay [2], in assay [3], in assay [4] and in assay [5] was 0 in each case.

Take `CCn1c(-c2nonc2N)nc2c(C#CC(C)(C)O)nc(O[C@@H](CN)c3ccccc3)cc21` [GSK1007102B]: the potency estimated from few doses in assay [1] (setting [6]) is 67.3 nM. Also, the CATDS in assay [1] turned out to be 0.04112; in assay [2] it was 0; in assay [3] it was 0; in assay [4], 0; in assay [5], 0.

For `O=c1cc(N2CCOCC2)nc2n(Cc3ccccc3F)ccn12` [GSK2297428A], the CATDS in assay [1], in assay [2], in assay [3], in assay [4] and in assay [5] was 0 each time.

For the molecule `CCCN1CCC(Oc2cc(Nc3nc(Nc4cccc(F)c4C(N)=O)c4cc[nH]c4n3)c(OC)cc2Cl)CC1` [GSK1713088A], the CATDS in assay [1], in assay [2], in assay [3], in assay [4] and in assay [5] was 0 each time.

On to `CC(C(=O)NC1CCN(c2ccnc(Nc3ccc(F)cc3)n2)C1)c1ccc(Cl)cc1` (centres unmarked) [GSK1379713A], for which the CATDS in assay [1], in assay [2], in assay [3], in assay [4] and in assay [5] was 0 throughout.

Turning to `COc1ccc2ncnc(Nc3ccc(OCc4ccccc4)cc3)c2c1` [GI261520A], the CATDS in assay [1], in assay [2], in assay [3], in assay [4] and in assay [5] was 0 throughout.

Regarding `COc1c(OCCCN2CCOCC2)ccc2c1N=C(NC(=O)c1cnc(N)nc1)N1CCN=C21` [Copanlisib, reference compound], the CATDS in assay [1], in assay [2], in assay [3], in assay [4] and in assay [5] was 0 each time.

As to `CCCc1cc(N2CCCN(C)CC2)nc2sc3c(N)ncnc3c12` [BI00604564], the potency estimated from few doses in assay [1] (setting [6]) is above 1000 nM. Besides, the CATDS in assay [1], in assay [2], in assay [3], in assay [4] and in assay [5] was 0 each time.

With `CCNC(=O)O[C@H]1CN[C@H](C#Cc2cc3ncnc(Nc4ccc(OCc5cccc(F)c5)c(Cl)c4)c3s2)C1` [GSK192082A], the CATDS in assay [1], in assay [2], in assay [3], in assay [4] and in assay [5] was 0 each time.

Turning to `COC(=O)c1cccc(NC(=O)NC2CCN(c3ccnc(Nc4cc(OC)c(OC)c(OC)c4)n3)C2)c1` (centres unmarked) [GSK1379767A], the potency estimated from few doses in assay [1] (setting [6]) was above 1000 nM. Moreover, the CATDS in assay [1], in assay [2], in assay [3], in assay [4] and in assay [5] was 0 throughout.

With `Cc1ccc(-n2nc(C(C)(C)C)cc2NC(=O)Nc2ccc(OCCN3CCOCC3)cc2)cc1` [BIRB0876BS], the CATDS in assay [1], in assay [2], in assay [3], in assay [4] and in assay [5] was 0 each time.

As to `COc1cc2c(cc1Nc1nc(N3CCc4ccccc43)c3cc[nH]c3n1)N(C(=O)CN(C)C)CC2` [GSK2186269A], the CATDS in assay [1], in assay [2], in assay [3], in assay [4] and in assay [5] was 0 throughout.

Regarding `CN(C)S(=O)(=O)c1cc(-c2ccc3nccc(-c4cccc(S(N)(=O)=O)c4)c3c2)cnc1N` [GSK1669921A], the CATDS in assay [1], in assay [2], in assay [3], in assay [4] and in assay [5] was 0 throughout.
